Assay results as given in paper PMC4198064 (ACS Chemical Neuroscience, 2014).

Test system: HDAC subtypes 1, 2, 3, and 6
Assay: [11C]martinostat PET imaging of whole rat brain, blocked tracer binding
Format: in vivo

SMILES | blockade of [11C]martinostat binding in whole brain (subtype-selective benzamides, ip pretreatment) | blockade of [11C]martinostat uptake in whole brain (500 mg/kg ip, 30 min prior to tracer) [%]
Nc1cc(F)ccc1NC(=O)/C=C/c1cnn(C/C=C/c2ccccc2)c1 [RGFP966] | 7–10% | –
CCCC(CCC)C(=O)O [sodium valproate] | – | 16
